Reference: patent US20240132467A1, “BENZIMIDAZOLE DERIVATIVES FOR TREATING RESPIRATORY DISEASE” (TMEM16A Limited, priority 2020, published 2024)
pEC50: −log10 of the molar value.

Target: T1, human TMEM16A (TMEM16Aabc variant) (Homo sapiens, UniProt Q5XXA6, DEL476-501)
T1 sequence (Q5XXA6 with tags, fused parts or gaps isoform Q5XXA6-5 DEL539-564): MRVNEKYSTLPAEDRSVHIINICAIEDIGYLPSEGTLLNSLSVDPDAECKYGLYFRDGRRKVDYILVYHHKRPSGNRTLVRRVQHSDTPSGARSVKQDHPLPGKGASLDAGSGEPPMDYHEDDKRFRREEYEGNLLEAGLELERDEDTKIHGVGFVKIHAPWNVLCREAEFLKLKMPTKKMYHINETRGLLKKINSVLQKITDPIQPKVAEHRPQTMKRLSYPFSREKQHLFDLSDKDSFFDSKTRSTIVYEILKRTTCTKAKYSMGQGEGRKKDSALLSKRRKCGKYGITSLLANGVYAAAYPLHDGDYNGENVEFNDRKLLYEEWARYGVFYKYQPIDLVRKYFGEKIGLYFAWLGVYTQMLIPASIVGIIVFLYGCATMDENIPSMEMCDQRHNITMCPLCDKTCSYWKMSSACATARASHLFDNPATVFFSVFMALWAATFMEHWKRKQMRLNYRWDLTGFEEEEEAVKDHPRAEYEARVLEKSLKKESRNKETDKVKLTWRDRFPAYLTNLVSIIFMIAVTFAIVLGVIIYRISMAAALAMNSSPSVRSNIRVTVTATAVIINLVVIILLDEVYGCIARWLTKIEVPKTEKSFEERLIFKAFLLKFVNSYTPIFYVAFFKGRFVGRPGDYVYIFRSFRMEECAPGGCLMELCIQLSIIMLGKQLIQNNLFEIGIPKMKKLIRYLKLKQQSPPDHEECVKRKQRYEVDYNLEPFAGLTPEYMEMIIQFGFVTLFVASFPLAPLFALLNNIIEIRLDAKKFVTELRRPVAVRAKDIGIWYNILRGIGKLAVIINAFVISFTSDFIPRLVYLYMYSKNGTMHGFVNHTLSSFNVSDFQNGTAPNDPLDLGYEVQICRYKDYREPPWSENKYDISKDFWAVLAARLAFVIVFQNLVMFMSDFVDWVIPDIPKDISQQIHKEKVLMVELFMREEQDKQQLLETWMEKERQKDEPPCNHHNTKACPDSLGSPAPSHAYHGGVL
Test: Automated whole-cell patch clamp (Qpatch) TMEM16A potentiator assay in FRT cells stably expressing human TMEM16A
Type: cell-based
Conditions: for activation at 3.33 µM: 3.33 μM test compound, percentage increase of baseline TMEM16A current at +70 mV, intracellular calcium at EC20, read-out: % Potentiation @ 3.33 μM Avg; for pEC50: cumulative concentration response, 5 min per concentration, whole-cell patch clamp
Description: Automated whole-cell patch clamp assay to detect TMEM16A activity in recombinant cells Cell culture and preparation
Fisher rat thyroid (FRT) cells stably expressing human TMEM16A (TMEM16Aabc variant; Dr Luis Galietta, Insituto Giannina, Italy) were cultured in T-75 flasks in Hams F-12 media with Coon's modification (Sigma) supplemented with 10% (v/v) foetal bovine serum, penicillin-streptomycin (10,000 U/mL/10000 μg/mL), G-418 (750μg/mL), L-glutamine (2 mM) and sodium bicarbonate solution (7.5% v/v). At —90% confluence cells were harvested for experiments by detachment with a 2:1 (v/v) mixture of Detachin (BMS Biotechnology) and 0.25% (w/v) trypsin-EDTA. Cells were diluted to a density of 3.5-4.5×10^6 cells/mL with media consisting of CHO-S-SFM II (Sigma), 25 mM HEPES (Sigma) and Soy bean trypsin inhibitor (Sigma).
Whole-Cell Patch Clamp Recording
FRT-TMEM16A cells were whole-cell patch clamped using an automated planar patch clamp system (Qpatch, Sophion). Briefly, once high resistance (GOhm) seals were established between the cells and the planar recording array the patch was ruptured using suction pulses to establish the whole-cell recording configuration of the patch clamp technique. The assay employed the following solutions (all reagents Sigma):
Intracellular solution (mM): N-methyl-D-glucamine 130, CaCl2 18.2, MgCl2 1, HEPES 10, EGTA 10, BAPTA 20, Mg-ATP 2, pH 7.25, 325mOsm with sucrose.
Extracellular solution (mM): N-methyl-D-glucamine 130, CaCl2 2, MgCl2 1, HEPES 10, pH 7.3, 320 mOsm with sucrose.
The intracellular solution buffers intracellular calcium at levels required to give —20% activation of the maximal TMEM16A mediated current (EC20 for calcium ions). Cells were voltage clamped at a holding potential of -70mV and a combined voltage step (to +70 mV)/ramp (−90 my to +90 mV) was applied at 0.05 Hz. After a period of current stabilisation test compounds, solubilised in 100% (v/v) DMSO and subsequently diluted into extracellular solution, were applied to generate a cumulative concentration response curve. Each concentration of test compound was incubated for 5 minutes before addition of the next concentration. After the final concentration was tested a supramaximal concentration of either a known active positive modulator or the TMEM16A inhibitor, CaCCinhA01 (Del La Fuente et al, 2008) was added to define the upper and lower limits of the assay.
Compound activity was quantified by measuring the increase in current upon compound addition and expressing this as a percentage increase of baseline TMEM16A current level. Percentage increases in current were determined for each concentration and the data plotted as a function of concentration using either the Qpatch software or Graphpad Prism v6.05 providing the concentration which gave 50% of its maximal effect (EC50) and maximum efficacy (percentage of baseline increase).
In FIG. 1, IBL equals baseline current, km equals the peak current during test compound concentration 1 incubation period and so on.
Peak TMEM16A current at +70mV was plotted as a function of time over the assay period. Baseline current (IBL) was measured after a period of stabilisation. The increase in current for each compound addition was determined by taking the peak current during the incubation period and subtracting the current from the previous recording period and then expressing this as a percentage of the baseline current. For test compound concentration 1 in FIG. 1 this is:
For each additional concentration tested the increase in current was determined by subtracting the current from the previous incubation period and normalising the baseline value—for test concentration 2 in FIG. 1 this is:
The values for each test concentration were plotted as a cumulative function of concentration e.g. for test concentration two this would be the sum of the peak changes measured during concentration one plus concentration two.

Structure (SMILES)	activation at 3.33 µM [%]	pEC50
CC1(CNC(=O)c2ccc3[nH]c(Cc4ccccc4)nc3c2)CCCCC1 [Example 1.10.1, 2-Benzyl-N-1(1-methylcyclohexyl)methylj-1H-benzimidazole-5-carboxamide]	124	6.68
O=C(NCC1CCCCCCC1)c1ccc2[nH]c(Cc3ccccc3)nc2c1 [Example 1.10.2, 2-Benzyl-N-(cyclooctylmethyl)-1H-benzimidazole-5-carboxamide]	76.1	6.72
CC(C)(C)OC(=O)NCC1(CC(=O)Nc2ccc3[nH]c(Cc4ccccc4)nc3c2)CCCCC1 [Example 2.1, tert-Butyl N-[[1-[2-[(2-benzyl-1H-benzimidazol-5-yl)amino]-2-oxo-ethyl]cyclohexyl]methyl]carbamate]	215	6.07
O=C(CC1CCC(F)(F)CC1)Nc1ccc2[nH]c(Cc3ccccc3)nc2c1 [Example 2.1.1]	47.6	6.24
COCC(NC(=O)OC(C)(C)C)c1nc2cc(NC(=O)CC3C4CC5CC(C4)CC3C5)ccc2[nH]1 (stereo not shown) [Example 2.2, tert-Butyl N-[1-[5-[[2-(2-adamantyl)acetyl]amino]-1H-benzimidazol-2-yl]-2-methoxy-ethyl]carbamate]	197	6.21
CN(C(=O)OC(C)(C)C)[C@H](c1ccccc1)c1nc2cc(NC(=O)CC3C4CC5CC(C4)CC3C5)ccc2[nH]1 (stereo partly shown) [Example 2.2.1]	97.7	6.04
CN(C(=O)OC(C)(C)C)[C@@H](c1ccccc1)c1nc2cc(NC(=O)CC3C4CC5CC(C4)CC3C5)ccc2[nH]1 (stereo partly shown) [Example 2.2.2]	127	6.02
CCN(Cc1nc2ccc(NC(=O)CC3C4CC5CC(C4)CC3C5)cc2[nH]1)C(=O)OC(C)(C)C (stereo not shown) [Example 2.2.3]	155	5.99
COCCN(Cc1nc2ccc(NC(=O)CC3C4CC5CC(C4)CC3C5)cc2[nH]1)C(=O)OC(C)(C)C (stereo not shown) [Example 2.2.4]	190	5.97
COCCc1nc2ccc(NC(=O)CC3C4CC5CC(C4)CC3C5)cc2[nH]1 (stereo not shown) [Example 2.2.5, 2-(2-Adamantyl)-N[2-(2-methoxyethyl)-3H-benzimidazol-5-yl]acetamide]	113	6.12
COCCCc1nc2cc(NC(=O)CC3C4CC5CC(C4)CC3C5)ccc2[nH]1 (stereo not shown) [Example 2.2.6, 2-(2-Adamantyl)-N[2-(3-methoxypropyl)-1H-benzimidazol-5-yl]acetamide]	167	6.11
CN(Cc1nc2cc(NC(=O)CC3C4CC5CC(C4)CC3C5)ccc2[nH]1)C(=O)OC(C)(C)C (stereo not shown) [Example 2.3, tert-Butyl N-[[5-[[2-(2-adamanty)acetyl]amino]-1H-benzimidazol-2-yl]methyl]-N-methyl-carbamate]	201	5.97
O=C(NCC1CCCCCC1)c1ccc2[nH]c(C3COc4ccccc43)nc2c1 (stereo not shown) [Example 2.4, N-(Cycloheptylmethyl)-2-(2,3-dihydrobenzofuran-3-yl)-1H-benzimidazole-5-carboxamide]	133	6.18
O=C(CC1C2CC3CC(C2)CC1C3)Nc1ccc2[nH]c(C(O)c3ccccc3)nc2c1 (stereo not shown) [Example 2.5, 2-(2-Adamantyl)-N-12-[hydroxy(phenyl)methyl]-1H-benzimidazol-5-yljacetamide]	58.9	6.82
O=C(CC1CCCCC1)Nc1ccc2[nH]c(-c3ccccc3)nc2c1 [Example 3.1, 2-Cyclohexyl-N-(2-phenyl-1H-benzimidazol-5-yl)acetamide]	74	6.54
O=C(Nc1ccc2[nH]c(Cc3ccccc3)nc2c1)C12CC3CC(CC(C3)C1)C2 [Example 3.2, N-(2-Benzyl-1H-benzimidazol-5-yl)adamantane-1-carboxamide]	58.5	6.48
O=C(NCC1CCCCCC1)c1cc(F)c2[nH]c(Cc3cccc(O)c3)nc2c1 [Example 3.3, N-(Cycloheptylmethyl)-7-fluoro-2-[(3-hydroxyphenyl)methyl]-1H-benzimidazole-5-carboxamide]	114	6.26
O=C(NCC1CCCCCC1)c1cc2nc(Cc3cccc(O)c3)[nH]c2cc1F [Example 3.3.1, N-(Cycloheptylmethyl)-6-fluoro-2-[(3-hydroxyphenyl)methyl]-1H-benzimidazole-5-carboxamide]	95.8	6.33
O=C(NCC1CCCCCC1)c1ccc2[nH]c(Cc3cccc(O)c3)nc2c1F [Example 3.3.2, N-(Cycloheptylmethyl)-4-fluoro-2-[(3-hydroxyphenyl)methyl]-1H-benzimidazole-5-carboxamide]	90.2	6.22
Cc1noc(C)c1Cc1nc2cc(NC(=O)CC3C4CC5CC(C4)CC3C5)ccc2[nH]1 (stereo not shown) [Example 3.4.1]	116	6.24
CC(C)(C)OC(=O)NCCc1nc2cc(NC(=O)CC3C4CC5CC(C4)CC3C5)ccc2[nH]1 (stereo not shown) [Example 3.4]	99.8	6.33
CC(C)(C)CNC(=O)c1ccc2[nH]c(Cc3ccccc3)nc2c1 [Example 3.5, 2-Benzyl-N-(2,2-dimethylpropyl)-1H-benzimidazole-5-carboxamide]	144	5.99
CC(C)(C)C(C)(C)NC(=O)c1ccc2[nH]c(Cc3ccccc3)nc2c1 [Example 3.5.1, 2-Benzyl-N-(1,1,2,2-tetramethylpropyl)-1H-benzimidazole-5-carboxamide]	89.5	6.11
